Bridge positions count the residues as written; N and C are the ends. Square brackets hold non-standard residues; d marks the D form. Peptide text beside a SMILES is read from it. * marks the point of attachment. ξ: configuration not given here. Bip = N[C@@H](Cc1ccc(-c2ccccc2)cc1)C(=O)O; Phe(3-Me) = Cc1cccc(C[C@H](N)C(=O)O)c1; 4Pal = N[C@@H](Cc1ccncc1)C(=O)O; Cha = N[C@@H](CC1CCCCC1)C(=O)O; Cit = NC(=O)NCCC[C@H](N)C(=O)O; Ile(3ξ) = CCC(C)[C@H](N)C(=O)O; Carboxymethyl = O=C(O)C*; NMeA = CN[C@@H](C)C(=O)O; Orn = NCCC[C@H](N)C(=O)O; Dab = NCC[C@H](N)C(=O)O
biological target: T1, PE-labeled human PD-L1-Ig binding to Jurkat cell line over-expressing human PD-1 (Jurkat-PD-1) (Homo sapiens, UniProt Q15116); assay: Jurkat-PD-1 Cell Binding High-Content Screening Assay (CBA): Method 1; conditions: Jurkat HPDL1 PD1 IC50 (uM) (Method 1)
T1 construct: expressed in transfected cells; host or cells: Jurkat
T1 sequence (Q15116 25-288): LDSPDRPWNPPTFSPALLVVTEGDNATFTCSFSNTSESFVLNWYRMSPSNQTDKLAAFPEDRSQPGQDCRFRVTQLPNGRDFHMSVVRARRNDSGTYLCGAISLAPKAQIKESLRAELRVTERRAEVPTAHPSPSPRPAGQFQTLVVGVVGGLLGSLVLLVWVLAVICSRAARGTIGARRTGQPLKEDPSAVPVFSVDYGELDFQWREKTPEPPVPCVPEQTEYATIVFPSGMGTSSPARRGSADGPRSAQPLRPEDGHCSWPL

Row | Structure (SMILES) | IC50 [µM]
1 | CCC(C)[C@@H]1NC(=O)[C@H](Cc2ccc(-c3ccccc3)cc2)NC(=O)[C@H](C(C)C)NC(=O)[C@H](Cc2cccc(C)c2)NC(=O)[C@H](CC(=O)O)NC(=O)[C@H](Cc2cccc(C)c2)NC(=O)[C@H](Cc2ccncc2)NC(=O)CSC[C@@H](C(=O)N[C@@H](CO)C(=O)O)NC(=O)[C@H](CO)NC(=O)[C@H](C(C)C)NC(=O)[C@H](CC2CCCCC2)NC(=O)[C@H](CCN)NC(=O)[C@@H](CC(C)C)NC(=O)[C@H](C)N(C)C1=O (stereo partly drawn) [Compound 2233] ({CH2CO}-[4Pal][Phe(3-Me)]D[Phe(3-Me)]V[Bip][Ile(3ξ)][NMeA][dL][Dab][Cha]VSCS-OH; thioether N-14) | 0.02

same assay, conditions: Jurkat-hPD-1 cells, PE-labeled PD-L1-Ig 20 nM final; read-out: Jurkat HPDL1 PD1 IC50 (uM) (Method 1)

Row | IC50 [µM] | Structure (SMILES)
2 | 0.02 | CCC(C)[C@@H]1NC(=O)[C@H](Cc2ccc(-c3ccccc3)cc2)NC(=O)[C@H](C(C)C)NC(=O)[C@H](Cc2cccc(C)c2)NC(=O)[C@H](CC(=O)O)NC(=O)[C@H](Cc2ccc(OCC(=O)O)cc2)NC(=O)[C@H](Cc2ccncc2)NC(=O)CSC[C@@H](C(=O)N[C@@H](CO)C(=O)O)NC(=O)[C@H](CO)NC(=O)[C@H](C(C)C)NC(=O)[C@H](CC2CCCCC2)NC(=O)[C@H](CCN)NC(=O)[C@@H](CC(C)C)NC(=O)[C@H](C)N(C)C1=O (stereo partly drawn) [Compound 2234] ({CH2CO}-[4Pal]Y(Carboxymethyl)D[Phe(3-Me)]V[Bip][Ile(3ξ)][NMeA][dL][Dab][Cha]VSCS-OH; thioether N-14)
3 | 0.31 | CCC(C)[C@@H]1NC(=O)[C@H](Cc2ccc(-c3ccccc3)cc2)NC(=O)[C@H](C(C)C)NC(=O)[C@H](Cc2cccc(C)c2)NC(=O)[C@H](CC(=O)O)NC(=O)[C@H](Cc2ccc(OCC(=O)O)cc2)NC(=O)[C@H](Cc2ccncc2)NC(=O)CSC[C@@H](C(=O)N[C@@H](CO)C(=O)O)NC(=O)[C@H](CO)NC(=O)[C@H](C(C)C)NC(=O)[C@H](CC2CCCCC2)NC(=O)[C@H](CCN)NC(=O)[C@@H](CC(C)C)NC(=O)[C@H](C)N(C)C1=O (stereo partly drawn) [Compound 2236] ({CH2CO}-[4Pal]Y(Carboxymethyl)D[Phe(3-Me)]V[Bip][Ile(3ξ)][NMeA][dL][Dab][Cha]VSCS-OH; thioether N-14)
4 | 0.01 | CC(C)C[C@@H]1NC(=O)[C@H](CC(N)=O)NC(=O)[C@@H](CC(C)C)NC(=O)[C@H](C)N(C)C(=O)[C@H](CCCNC(N)=O)NC(=O)[C@H](Cc2ccc(-c3ccccc3)cc2)NC(=O)[C@H](C(C)C)NC(=O)[C@H](Cc2c[nH]c3ccccc23)NC(=O)[C@H](CC(=O)O)NC(=O)[C@H](Cc2ccc(O)cc2)NC(=O)[C@H](Cc2ccccc2)NC(=O)CSC[C@@H](C(=O)N[C@@H](C)C(=O)N[C@@H](CCCN)C(=O)O)NC(=O)[C@H](CO)NC(=O)[C@H](C(C)C)NC1=O [Compound 2237] ({CH2CO}-FYDWV[Bip][Cit][NMeA][dL]NLVSCA[Orn]-OH; thioether N-14)
5 | 0.01 | CC(C)C[C@@H]1NC(=O)[C@H](Cc2c[nH]c3ccccc23)NC(=O)[C@H](CC(=O)O)NC(=O)[C@H](Cc2ccc(O)cc2)NC(=O)[C@H](Cc2ccccc2)NC(=O)CSC[C@@H](C(=O)N[C@@H](C)C(=O)N[C@@H](CCCN)C(=O)O)NC(=O)[C@H](CO)NC(=O)[C@H](C(C)C)NC(=O)[C@H](CC(C)C)NC(=O)[C@H](CC(N)=O)NC(=O)[C@@H](CC(C)C)NC(=O)[C@H](C)N(C)C(=O)[C@H](C(C)C)NC(=O)[C@H](Cc2ccc(-c3ccccc3)cc2)NC1=O [Compound 2238] ({CH2CO}-FYDWL[Bip]V[NMeA][dL]NLVSCA[Orn]-OH; thioether N-14)

Row | Structure (SMILES) | IC50 [µM]
6 | CCC(C)[C@@H]1NC(=O)[C@H](Cc2ccc(-c3ccccc3)cc2)NC(=O)[C@H](C(C)C)NC(=O)[C@H](Cc2cccc(C)c2)NC(=O)[C@H](CC(=O)O)NC(=O)[C@H](Cc2cccc(C)c2)NC(=O)[C@H](Cc2ccncc2)NC(=O)CSC[C@@H](C(=O)N[C@@H](CO)C(=O)O)NC(=O)[C@H](CO)NC(=O)[C@H](C(C)C)NC(=O)[C@H](CC2CCCCC2)NC(=O)[C@H](CCN)NC(=O)[C@@H](CC(C)C)NC(=O)[C@H](C)N(C)C1=O (stereo partly drawn) [Compound 2235] ({CH2CO}-[4Pal][Phe(3-Me)]D[Phe(3-Me)]V[Bip][Ile(3ξ)][NMeA][dL][Dab][Cha]VSCS-OH; thioether N-14) | 0.3

— patent US20240409585A1, “MACROCYCLIC IMMUNOMODULATORS” (priority 2021, published 2024)
